Data published in the supplement of paper PMC11061612.

How the values were obtained:
[1] = compound: C1CN(CCC1(C(=O)N[C@@H](CCO)C2=CC=C(C=C2)Cl)N)C3=NC=NC4=C3C=CN4 [Capivasertib]; details: max 10 µM
Outline: (§1)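 In 1536-well plates, cancer cell lines in 7.5 μl DMEM/F12 or RPMI with 10% FBS spent 24 hours at 37°C and 5% CO2 and were then dosed for 72 hours with final DMSO typically 0.2%. Viability was read by CellTiter-Glo 2.0 luminescence and scaled between blank-well and DMSO-well means. The single-agent IC50 was fitted from dose responses using a logistic curve in a non-linear mixed effects model, and that logistic curve had two parameters.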

[2] = compound: C=CCn1c(=O)c2cnc(Nc3ccc(N4CCN(C)CC4)cc3)nc2n1-c1cccc(C(C)(C)O)n1 [AZD1775]; details: max 3 µM
Outline: as §1

[3] = compound: CC(=O)Nc1cccc(-n2c(=O)n(C3CC3)c(=O)c3c(Nc4ccc(I)cc4F)n(C)c(=O)c(C)c32)c1 [Trametinib]; details: max 1 µM
Outline: as §1

[4] = compound: CC(=O)c1c(C)c2cnc(Nc3ccc(N4CCNCC4)cn3)nc2n(C2CCCC2)c1=O [Palbociclib]; details: max 10 µM
Outline: as §1

[5] = compound: CC(C)n1c(=O)n(C)c2cnc3cc(F)c(-c4ccc(OCCCN5CCCCC5)nc4)cc3c21 [AZD1390]; details: max 0.3 µM
Outline: as §1

[6] = compound: CC1(C)CCC(CN2CCN(c3ccc(C(=O)NS(=O)(=O)c4ccc(NCC5CCOCC5)c([N+](=O)[O-])c4)c(Oc4cnc5[nH]ccc5c4)c3)CC2)=C(c2ccc(Cl)cc2)C1 [Venetoclax]; details: max 1 µM
Outline: as §1

[7] = compound: CC1=C(C(=CC=C1)Cl)NC(=O)C2=CN=C(S2)NC3=CC(=NC(=N3)C)N4CCN(CC4)CCO [Dasatinib]; details: max 2 µM
Outline: as §1

[8] = compound: CC1=CN2[C@@H](C1)C=NC3=CC(=C(C=C3C2=O)OC)OCCCCCOC4=C(C=C5C(=C4)N=C[C@@H]6CC(=CN6C5=O)C)OC [SG3199]; details: max 0.001 µM
Outline: as §1

[9] = compound: CCN(CCO)CCCOc1ccc2c(Nc3cc(CC(=O)Nc4cccc(F)c4)[nH]n3)ncnc2c1 [AZD2811]; details: max 1 µM
Outline: as §1

[10] = compound: CCc1c2c(nc3ccc(O)cc13)-c1cc3c(c(=O)n1C2)COC(=O)[C@]3(O)CC [SN-38]; details: max 0.3 µM
Outline: as §1

[11] = compound: CN(C)CCCOc1ccc(-c2ccc3ncc4c(c3c2)n(C2CCOCC2)c(=O)n4C)cn1 [AZD0156]; details: max 3 µM
Outline: as §1

[12] = compound: CN(CC[C@H](CSC1=CC=CC=C1)NC2=C(C=C(C=C2)S(=O)(=O)NC(=O)C3=CC=C(C=C3)N4CCC(CC4)[C@H](C5=CC=CC=C5C6=CC=C(C=C6)Cl)O)S(=O)(=O)C(F)(F)F)CCO [AZD4320]; details: max 1 µM
Outline: as §1

[13] = compound: COc1cc(Nc2ncc3c(n2)-c2ccc(Cl)cc2C(c2c(F)cccc2OC)=NC3)ccc1C(=O)O [Alisertib]; details: max 10 µM
Outline: as §1

[14] = compound: COc1cc2ncnc(Nc3ccc(F)c(Cl)c3)c2cc1OCCCN1CCOCC1 [Gefitinib]; details: max 10 µM
Outline: as §1

[15] = compound: COc1cccc(OCCCN)c1-c1cc(Nc2cnc(C#N)cn2)n[nH]1 [Prexasertib]; details: max 1 µM
Outline: as §1

[16] = compound: COc1cccc2c1C(=O)c1c(O)c3c(c(O)c1C2=O)C[C@@](O)(C(=O)CO)C[C@@H]3O[C@H]1C[C@H](N)[C@H](O)[C@H](C)O1 [Doxorubicin]; details: max 1 µM
Outline: as §1

[17] = compound: COc1nnc2ccc(N3CCC(c4ccc(OCCN5CCN(C)C(=O)[C@H]5C)cc4)CC3)nn12 [AZD5153]; details: max 1 µM
Outline: as §1

[18] = compound: CS(=O)(=O)CCNCc1ccc(-c2ccc3ncnc(Nc4ccc(OCc5cccc(F)c5)c(Cl)c4)c3c2)o1 [Lapatinib]; details: max 10 µM
Outline: as §1

[19] = compound: C[C@@H](Nc1cc(F)cc(F)c1)c1cc(C(=O)N(C)C)cc2c(=O)cc(N3CCOCC3)oc12 [AZD8186]; details: max 3 µM
Outline: as §1

[20] = compound: C[C@@H](Oc1cc(-c2cnn(C3CCNCC3)c2)cnc1N)c1c(Cl)ccc(F)c1Cl [Crizotinib]; details: max 10 µM
Outline: as §1

[21] = compound: C[C@@H](c1ccc2nccn2c1)n1nnc2ncc(-c3cnn(C)c3)nc21 [Savolitinib]; details: max 1 µM
Outline: as §1

[22] = compound: C[C@@H]1COCCN1C2=NC(=NC(=C2)C3(CC3)[S@](=N)(=O)C)C4=C5C=CNC5=NC=C4 [AZD6738]; details: max 10 µM
Outline: as §1

[23] = compound: Cc1c2c(nn1C)CSCc1cc(n(C)n1)CSc1cc(c3ccccc3c1)OCCCc1c(C(=O)O)n(C)c3c-2c(Cl)ccc13 [AZD5991]; details: max 1 µM
Outline: as §1

[24] = compound: Cc1cc2ncnn2cc1Nc1ncc2c(n1)n(C1CCOCC1)c(=O)n2C [AZD7648]; details: max 10 µM
Outline: as §1

[25] = compound: Cc1nc(-c2cn3c(n2)-c2ccc(-c4cnn(C(C)(C)C(N)=O)c4)cc2OCC3)n(C(C)C)n1 [Taselisib]; details: max 10 µM
Outline: as §1

[26] = compound: Cn1cnc2c(F)c(Nc3ccc(Br)cc3Cl)c(C(=O)NOCCO)cc21 [Selumetinib]; details: max 10 µM
Outline: as §1

[27] = compound: NC1(c2ccc(-c3nc4ccn5c(=O)[nH]nc5c4cc3-c3ccccc3)cc2)CCC1 [MK-2206]; details: max 10 µM
Outline: as §1

[28] = compound: O=C(c1cc(Cc2n[nH]c(=O)c3ccccc23)ccc1F)N1CCN(C(=O)C2CC2)CC1 [Olaparib]; details: max 10 µM
Outline: as §1

Cell Line	IC50, cell viability 72 h [1] [nM]	IC50, cell viability 72 h [2] [nM]	IC50, cell viability 72 h [3] [nM]	IC50, cell viability 72 h [4] [nM]	IC50, cell viability 72 h [5] [nM]	IC50, cell viability 72 h [6] [nM]	IC50, cell viability 72 h [7] [nM]	IC50, cell viability 72 h [8] [nM]	IC50, cell viability 72 h [9] [nM]	IC50, cell viability 72 h [10] [nM]	IC50, cell viability 72 h [11] [nM]	IC50, cell viability 72 h [12] [nM]	IC50, cell viability 72 h [13] [nM]	IC50, cell viability 72 h [14] [nM]	IC50, cell viability 72 h [15] [nM]	IC50, cell viability 72 h [16] [nM]	IC50, cell viability 72 h [17] [nM]	IC50, cell viability 72 h [18] [nM]	IC50, cell viability 72 h [19] [nM]	IC50, cell viability 72 h [20] [nM]	IC50, cell viability 72 h [21] [nM]	IC50, cell viability 72 h [22] [nM]	IC50, cell viability 72 h [23] [nM]	IC50, cell viability 72 h [24] [nM]	IC50, cell viability 72 h [25] [nM]	IC50, cell viability 72 h [26] [nM]	IC50, cell viability 72 h [27] [nM]	IC50, cell viability 72 h [28] [nM]
RH-1 (Ewing's Sarcoma)	> 10000	95.1	> 1000	> 10000	> 300	> 1000	> 2000	> 1	22.6	4.35	> 3000	830	39	> 10000	18.4	56.1	> 1000	> 10000	> 3000	2250	> 1000	2000	550	> 10000	6260	> 10000	> 10000	> 10000
SNU-C5 (Colorectal Carcinoma)	> 10000	507	563	> 10000	> 300	> 1000	> 2000	> 1	> 1000	43.5	> 3000	> 1000	9360	> 10000	21.8	> 1000	578	> 10000	> 3000	> 10000	> 1000	4000	> 1000	> 10000	2010	> 10000		> 10000
SUIT-2 (Pancreatic Carcinoma)	> 10000	1860	478	> 10000	> 300	> 1000	> 2000	> 1	> 1000	32.6	> 3000	> 1000	> 10000	> 10000	178	> 1000	> 1000	> 10000	> 3000	> 10000	> 1000	> 10000	> 1000	> 10000	> 10000	> 10000	> 10000	> 10000
SW756 (Cervical Carcinoma)	> 10000	> 3000	> 1000	> 10000	> 300	> 1000	> 2000	> 1	> 1000	32.3	> 3000	> 1000	> 10000	> 10000	> 1000	> 1000	> 1000	> 10000	> 3000	> 10000	> 1000	> 10000	> 1000	> 10000	> 10000	> 10000	> 10000	> 10000
SW780 (Bladder Carcinoma)	> 10000	> 3000	> 1000	> 10000	> 300	> 1000	> 2000	> 1	> 1000	247	> 3000	> 1000	> 10000	> 10000	> 1000	> 1000	> 1000	> 10000	> 3000	> 10000	> 1000	> 10000	> 1000	> 10000	> 10000	> 10000	> 10000	> 10000
TGBC24TKB (Biliary Tract Carcinoma)	> 10000	815	933	> 10000	> 300	> 1000	> 2000	> 1	923	> 300	> 3000	> 1000	1860	> 10000	49.4	> 1000	665	8010	> 3000	9900	> 1000	7400	> 1000	> 10000	561	> 10000	> 10000	> 10000
